These results are taken from patent publication US4070492A, “Propranolol assay” (priority 1977, dated 1978).

Data set [1] relates to heart rate increase caused by isoproterenol. The experiment in a line: Inhibition by propranolol of heart rate increase caused by isoproterenol in anesthetized rats. It is filed as in vivo. The conditions noted are these: rat, 1 mg/kg i.v.
Text: Increase in heart rate in response to isoproterenol 0.5 g/kg i.v. was compared beforeand at varying time after the administration of propranolol.
Data set [2] is described as follows: Disposition of propranolol in rats: serum/blood levels by radioimmunoassay. To be noted: rat; for disposition in blood: 1 mg/kg racemic propranolol i.v., in words; for half-life: blood, iv, 1 mg/kg.
Data set [3] relates to antiserum against d,l-propranolol. Nature of the data set: Competition with 3H-propranolol for binding to antiserum against d,l-propranolol (radioimmunoassay specificity). More on the design: species or system rabbit. The conditions noted are these: for recognition by antiserum against d,l-propranolol: d- versus l-propranolol; for inhibition of 3H-propranolol binding: at 100 ng. On the procedure: (§1) New Zealand albino rabbits were immunized with propranolol-BSA immunogens once a week for 4 weeks and then once every 2 to 4 weeks. The immunogen was dissolved in phosphate-buffered saline (pH 7.4)
(§2) and emulsified with an equal amount of complete Freund's adjuvant. One ml. of emulsion containing 500 μg of immunogen was injected into four foot pads and intramuscularly into both thighs. Bleedings were taken from the central ear artery 6 to 8 days after the third booster injection. Blood was allowed to clot overnight at 4° C. and centrifuged at 2,000 rpm for 15 mintues to separate serum.
(§3) Antisera were diluted in a 2.5% solution of normal rabbit serum in 1:10 phosphate buffered saline. 0.4 ml. of this mixture was added to the assay tubes (10 × 75 mm). 10 μ1. of unknown or standard solutions were added to the tubes. 0.1 ml. of radioactive, d,l-propranolol solution containing 60 pg. (approximately 2,500 cpm) for antiserum against […] and 120 pg. (approximately 5,000 cpm) for antiserum against l-propranolol was subsequently added. The tubes were incubated overnight at 4° C. Antibody bound propranolol was separated by the addition of 0.5 ml. of saturated ammonium sulfate. The pellet was washed once with 0.8 ml. of 50% saturated ammonium sulfate, then dissolved in 0.5 ml. of water and transferred into a counting vial. The tube was washed twice with 3 ml. of Riafluor. Another portion of 6 ml. Riafluor was added to the vial to give a total volume of 12 ml., and the radioactivity was counted in a scintillation counter. The dilutions of the antisera used were 1:10,000 and 1:1000 respectively against d,l-propranolol and l-propranolol.
(§4) The sensitivity of radioimmunoassay for d,l-propranolol and its l-isomer in phosphate-buffered saline and serum were determined.
(§5) ID50 refers to the amount of the compound required to produce 50% inhibition of ^3 H-propranolol-antibody complex formation.

Data set [4] deals with antiserum against l-propranolol. The experiment in a line: Competition with 3H-propranolol for binding to antiserum against l-propranolol (radioimmunoassay specificity). More on the design: species or system rabbit. To be noted: for inhibition of 3H-propranolol binding: at 100 ng. The protocol: as §1, §2, §3, §4, §5
The next data set deals with rat heart. Nature of the data set: Disposition of propranolol in rats: heart levels by radioimmunoassay. The conditions noted are these: 1 mg/kg d,l-propranolol i.v.
Test in data set [5]: as above
To be noted: rat, heart, iv, 1 mg/kg.

Data set [6] has as its system both antisera (against d,l-propranolol and l-propranolol). Nature of the data set: Competition with 3H-propranolol for binding, results stated once for both antisera. More on the design: species or system rabbit. To be noted: for inhibition of 3H-propranolol binding: at 100 ng; for recognition / cross-reaction / interference: in words. The protocol: as §1, §2, §3, §4, §5

For data set [7] the following is noted: rat, in vivo, iv, 1 mg/kg.
[8] abbreviates: antiserum against l-propranolol.

Entries after “also recorded” stand apart in the source; their conditions may differ. A value given as a limit tells only on which side of the number the result lay.

With `CC(C)NCC(O)COc1cccc2ccccc12` (racemic) [propranolol], in data set [1], the “time by which effect on heart rate disappeared” value was no more than 90 min. Further, the “suppression of increase in heart rate due to isoproterenol” value in data set [1] (first 30 minutes after administration) is “markedly suppressed”. In data set [2], the disposition in blood result is reported as “declines rapidly in the blood following the injection”.

For orientation: half-life means the time in which the quantity being followed falls by half. High values mean slow loss, low ones fast loss. With `CC(C)NC[C@H](O)COc1cccc2ccccc12` [l-propranolol], the “recognition by antiserum against d,l-propranolol” value in data set [3] is recorded as “to the same degree”. Besides, the “selectivity of antiserum against l-propranolol” value in data set [4] (l-propranolol versus d-isomer) is reported as “able to discriminate the l-propranolol selectively; also recorded: more selectively than the d-isomer”. In addition, the “decline in heart compared with blood” value in the data set with rat heart (after half an hour) was “almost parallel to that found in the blood”. For the same compound, the “heart uptake / presence in heart” value in the data set with rat heart (in words, 1 mg/kg) is “rapid accumulation of l-propranolol by the heart; also recorded: stereospecific uptake of l-propranolol by the rat heart; also recorded: only l-propranolol could be found in the heart”. The values for the half-life in data set [5] and in data set [2] were 62 min and 52 min, respectively. For the same compound, in data set [2] (1 mg/kg d,l-propranolol i.v.), the “half-life relative to d-isomer” value was “almost twice that of the d-isomer”.

For the compound `NCC(O)c1ccc(O)c(O)c1` (stereo not drawn) [norepinephrine], the “inhibition of 3H-propranolol binding” value in data set [6] is “no inhibition”.

In the case of `Oc1cccc2ccccc12` [1-naphthol], the “inhibition of 3H-propranolol binding” value in data set [3] (anti-d,l-propranolol antiserum) came out at 25%; in data set [4] (anti-l-propranolol antiserum), 45%. Moreover, the “concentration needed for interference with the assay” value in data set [6] (both antisera) is given as “at least 1,000 times greater”.

For `CC(C)NCC(O)COc1ccc(O)c2ccccc12` (stereo not drawn) [4-hydroxy-propranolol], in data set [3] (antiserum against d,l-propranolol), the “concentration needed for recognition by the d,l-antibody” value was no less than 70 times greater. The “concentration needed for recognition by the l-antibody” value in data set [4] (setting [8]) was no less than 35 times greater.

For `CC(C)NCC(O)c1ccc(O)c(O)c1` (stereo not drawn) [isoproterenol], the “inhibition of 3H-propranolol binding” value in data set [6] was “no inhibition”. In data set [6] (both antisera), the “recognition / cross-reaction / interference” value is given as “no cross-reaction”.

For the compound `CC(C)NC[C@@H](O)COc1cccc2ccccc12` [d-propranolol], the “ID50 and 95% confidence limits” value in data set [3] (anti-d,l-propranolol antiserum, amount for 50% inhibition of 3H-propranolol-antibody complex formation, 95% confidence limits in parentheses) came out at 314 pg; in data set [4] (anti-l-propranolol antiserum, amount for 50% inhibition of 3H-propranolol-antibody complex formation, 95% confidence limits in parentheses), 1656 pg. Besides, the “recognition by antiserum against d,l-propranolol” value in data set [3] is listed as “to the same degree”. Also, the “amount of l-form as which 100 pg of the d isomer is recognized by the l-antibody” value in data set [4] (100 pg of d isomer) worked out at 7 pg. Further, the “ID50 relative to that for l-propranolol” value in data set [4] (setting [8]) is reported as 14 times. The “initial blood level relative to l-propranolol” value in data set [7] was “three times higher”. Further, the half-life in data set [2] is 23.8 min. Also, the disposition in blood entry in data set [2] is “remains in the blood and is metabolized rapidly”.

For `O=C(O)COc1cccc2ccccc12` [1-naphthoxy acetic acid], the “inhibition of 3H-propranolol binding” value was 10% in data set [3] (anti-d,l-propranolol antiserum) and 25% in data set [4] (anti-l-propranolol antiserum). Moreover, the “concentration needed for interference with the assay” value in data set [6] (both antisera) is “at least 1,000 times greater”.

As for `CC(C)NCC(O)c1ccc2ccccc2c1` (stereo not drawn) [pronethalol], the “inhibition of 3H-propranolol binding” value in data set [3] (anti-d,l-propranolol antiserum) is listed as 45%. Besides, the “recognition / cross-reaction / interference” value in data set [6] (both antisera) was “not significant recognized by either antisera”.

For the compound `CC(C)NCC(O)c1ccc(Cl)c(Cl)c1` (stereo not drawn) [dichloroisoproterenol], the “inhibition of 3H-propranolol binding” value was 13% in data set [3] (anti-d,l-propranolol antiserum) and “no inhibition” in data set [4] (anti-l-propranolol antiserum). Further, in data set [6] (both antisera), the “recognition / cross-reaction / interference” value is listed as “not significant recognized by either antisera”.

Turning to `CNCC(O)c1ccc(O)c(O)c1` (stereo not drawn) [epinephrine], the “inhibition of 3H-propranolol binding” value in data set [6] is given as “no inhibition”.

Consider `CC(C)N` [isopropylamine], for which the “inhibition of 3H-propranolol binding” value in data set [6] is reported as “no inhibition”. For the same compound, the “concentration needed for interference with the assay” value in data set [6] (both antisera) is on record as “at least 1,000 times greater”.

As for `OCC(O)COc1cccc2ccccc12` (stereo not drawn) [propranolol glycol, 1-(1-naphthoxy)-2,3-propylene glycol], the “ID50 relative to values for l-propranolol and d,l-propranolol” value in data set [6] (both antisera) was 9-14 times.

Take `NCCc1ccc(O)c(O)c1` [dopamine]: the “inhibition of 3H-propranolol binding” value in data set [6] is given as “no inhibition”.

With `Oc1ccc(O)c2ccccc12` [1,4-naphthalene-diol], the “inhibition of 3H-propranolol binding” value is recorded as “no inhibition” in data set [3] (anti-d,l-propranolol antiserum) and 17% in data set [4] (anti-l-propranolol antiserum). Further, the “concentration needed for interference with the assay” value in data set [6] (both antisera) is listed as “at least 1,000 times greater”.
